In brackets after ≈: the same amount, converted by molar mass.
Experiments:
[1] = test system: Nocardia brasiliensis IFM 0406; assay: Sensitivity of Nocardia brasiliensis IFM 0406 against antibiotics; assay type: cell-based
Protocol: The strain was cultured in a culture medium (brain heart infusion containing 2% glucose) at 30° C. with shaking at 250 rpm for 72 hours, and the cells grown in the medium were collected by centrifuge at 3,000 rpm for 10 minutes, which were then washed twice in distilled water. Further, the cells were washed in ethanol and subsequently dried in vacuum to give the dry cells. According to Bergey's Manual of Determinative Bacteriology, the 9-th edition, Williams & Willkins, Baltimore, 1993, the amino acid composition, sugar composition and lipid composition of the dry cells were determined. Meso-diamino pimelic acid was detected by the amino acid analysis, while arabinose and galactose were detected by the sugar analysis. Also, the presence of mycolic acid was determined by the lipid analysis, and the type of the acid was Nocardia type. MK-8(H4) cycle was confirmed as a principal component of the isoprenoid quinone which is a part of the bacterial lipid, while as the trace components, MK-8(H4), MK-8(H), and MK-9(H2) were confirmed. Based onthe decomposition of adenine, casein, hypoxanthine and tyrosine and additionally on the formation patterns of acids from sugar and the antimicrobial sensitivity patterns, shown in Table 4 (Mikami & Yazawa, Susceptibility pattern of pathogenic Nocardia to some selected antimicrobial agents and their usefulness in the identification work in a clinical laboratory: BuLL. JFCC, 5: 89, 1989), the bacterial strain was identified as the species N. brasiliensis. The results of the analysis of the G+C content and DNA homology support strongly that the strain is N. brasiliensis.

[2] = in words; cited from earlier work
[3] = test system: murine T cells (C57BL/6 splenocytes as responder cells); assay: Murine mixed lymphocyte reaction (MLR), T-cell blast formation by tritium-labeled thymidine uptake; assay type: cell-based; settings: Mus musculus, 96 h culture + 7 h labeling, read-out: IC50 (MLR, inhibition of tritium-labeled thymidine uptake)
[4] = Cytotoxity test, 3H-thymidine uptake, HEK-297; assay type: cell-based; settings: human, hek-297 cells; HEK-297, 96 h; read-out: IC50 (cytotoxity)
Protocol: (§1) After culturing for 96 hours, ^3 H-thymidine (0.5 μCi/well) was added into each well. The microtiter plate was incubated for 4 hours, followed by trypsin treatment of the cell lines excluding YAC-1, and the resulting cells were recovered on glass fiber filters to measure the radioactivity incorporated into the cells by means of a liquid scintillation counter. From the radioactivity (c) of a well with no addition of any sample and the radioactivity (t) of each of the wells with addition of the individual samples, the growth inhibition rate was determined by the formula […] (%). IC50 was calculated from the results.

[5] = Cytotoxity test, 3H-thymidine uptake, Cos-1; assay type: cell-based; settings: monkey, cos-1 cells; Cos-1, 96 h; read-out: IC50 (cytotoxity)
Protocol: as §1

[6] = Cytotoxity test, 3H-thymidine uptake, YAC-1; assay type: cell-based; settings: mouse, yac-1 cells; YAC-1, 96 h; read-out: IC50 (cytotoxity)
Protocol: as §1

[7] = Cytotoxity test, 3H-thymidine uptake, HeLa; assay type: cell-based; settings: human, hela cells, read-out: IC50 (cytotoxity)
Protocol: as §1

[8] = test system: cultured cell lines (HEK-297, Cos-1, YAC-1, HeLa); assay: Cytotoxity test, overall comparison on cultured cell lines; assay type: cell-based; settings: in words
Protocol: (1) The cytotoxity test of compound 0406-A shown in Example 1 was carried out against cultured cell lines.
Cell suspensions (5.6×10^4 cells/ml) were prepared by using the Minimum Essential Medium (MEM)-Dulbecco's medium for HEK-297, Cos-1, and Hela cells, and the RPMI 1640 medium for YAC-1 cells (all media containing 10% bovine serum). Samples (0406A, Cyclosporin and Ascomycin) were prepared by serial two-fold dilution starting from 1 mg/ml, by using the individual media. A cell suspension (180 μl) and a sample solution (20 μl) were added into each well of a 96-well microtiter plate, for culturing at 37° C. in wet 5% CO2 -95% air environment. After culturing for 96 hours, ^3 H-thymidine (0.5 μCi/well) was added into each well. The microtiter plate was incubated for 4 hours, followed by trypsin treatment of the cell lines excluding YAC-1, and the resulting cells were recovered on glass fiber filters to measure the radioactivity incorporated into the cells by means of a liquid scintillation counter. From the radioactivity (c) of a well with no addition of any sample and the radioactivity (t) of each of the wells with addition of the individual samples, the growth inhibition rate was determined by the formula […] (%). IC50 was calculated from the results.

[9] = test system: cytotoxic T-cell (CTL) generation; assay: In vitro cytotoxic T-cell activity (inhibitory effect on CTL generation induced by murine mixed lymphocyte reaction), 51Cr release from EL-4 cells; assay type: cell-based; settings: for Cytotoxic T-cell activity: lytic units per 10^7 effector cells
Protocol: (2) In vitro cytotoxic T-cell activity (CTL: cytotoxic T-cell) (Inhibitory effect on CTL generation, induced by murine mixed lymphocyte reaction)
A suspension solution (5.5×10^6 cells/ml; 0.9 ml) of BALB/C (H-2^d) splenocytes prepared in the same manner as in Example 2, a suspension solution (5.5×10^6 cells/ml; 0.9 ml) of C57BL/6 (H-2^b) splenocytes preliminarily treated with mitomycin C, and a sample solution (0.2 ml) were added into a 24-well multi-dish, for culturing at 37° C. under conditions of 5% CO2 -95% air for 5 days. After completion of cultivation, the cells were recovered by centrifuge, which were then suspended in the RPMI 1640 medium containing 10% bovine serum, for use as the effector cells.
EL-4 cells (H-2^b) were used as the target cells. The incubation of the EL-4 cells (10^6) with 0.1 μCi Na2^51 CrO4 at 37° C. for 3 hours promoted the ^51 Cr uptake in the cells, and subsequently, the cells were washed and the concentration was adjusted to 2×10^5 cells/ml for use as the target cells.
The determination of the cytotoxic T-cell generation was carried out as follows. The effector cell suspension (100 μl) and the target cell suspension (100 μl) were added into a 96-well round-bottom microtiter plate for cultivation at 37° C. for 4 hours, to measure ^51 Cr release in the supernatant. Then, the cytotoxic T-cell activity was calculated by the formulated below.
Cytotoxic T-cell activity =
[radioactivity of (effector cell + target cell)] -
(radioactivity of target cell alone)/
(radioactivity of target cell treated with 0.1N HCl) -
(radioactivity of target cell alone) × 100
The activity of the cytotoxic T cell was represented in lytic unit (LU). The activity in LU was represented per 10^7 effector cells, when 1 LU was designated as the number of effector cells required for 20% lysis of the 2×10^4 target cells.

[10] = Solubility; assay type: physicochemical

In the case of NC[C@H]1O[C@H](O[C@H]2[C@H](O)[C@@H](O[C@H]3O[C@H](CO)[C@@H](O)[C@H](N)[C@H]3O)[C@H](N)C[C@@H]2N)[C@H](N)C[C@@H]1O [tobramycin], the Sensitivity against antibiotics [1] was “positive”.
For NC[C@H]1O[C@H](O[C@H]2[C@H](O)[C@@H](O[C@H]3O[C@H](CO)[C@@H](O)[C@H](N)[C@H]3O)[C@H](N)C[C@@H]2N)[C@H](O)[C@@H](O)[C@@H]1O [kanamycin], the Sensitivity against antibiotics [1] was “negative”.
In the case of C[C@@H](O)[C@H]1C(=O)N2C(C(=O)O)=C(SCCN=CN)C[C@H]12 [imipenem], the Sensitivity against antibiotics [1] was “negative”.
For O=c1[nH]cc(F)c(=O)[nH]1 [5-FU], the Sensitivity against antibiotics [1] was “negative”.
For C=CC[C@@H]1/C=C(\C)C[C@H](C)C[C@H](OC)[C@H]2O[C@@](O)(C(=O)C(=O)N3CCCC[C@H]3C(=O)O[C@H](/C(C)=C/[C@@H]3CC[C@@H](O)[C@H](OC)C3)[C@H](C)[C@@H](O)CC1=O)[C@H](C)C[C@@H]2OC [tacrorims], the side effects [2] is listed as “deleterious in the pancreas and the kidney”.
With CCCCC(=O)OC1CC(OC(C)C(C)C(O)C(C)C(O)C(C)C2OC(=O)C=CCC(O)CC(O)CC(O)CCC(C)C(O)CC3(O)OC(CC(O)CC(OC(=O)CC(=O)O)CCCC(O)C4OC4C2C)CC(O)C3O)OC(C)C1O (stereo not drawn) [0406-A] the IC50 [3] was 0.16 µg/mL, the CC50 at 96 h [4] was greater than 100 µg/mL and the CC50 at 96 h [5] was greater than 100 µg/mL. For the same compound, the CC50 at 96 h [6] was greater than 100 µg/mL, the CC50 at 96 h [7] was greater than 100 µg/mL and the “cytotoxity level versus commercially available immuno suppressive agents” value [8] was “lower than that of the commercially available immuno suppressive agents”. The “Cytotoxic T-cell activity” value ([9]; 126 ng/ml) was 22.0 u, the “Cytotoxic T-cell activity” value ([9]; 625 ng/ml) was 12.5 u and the “Cytotoxic T-cell activity” value ([9]; 2,500 ng/ml) was 0.1 u. The “Cytotoxic T-cell activity” value ([9]; 10,000 ng/ml) was less than 0.1 u, the inhibition at 0.126 µg/mL ([9]; Mus musculus, T-cell, 120 h, 126 ng/ml, read-out: Inhibition rate (cytotoxic T-cell activity)) was 0% and the inhibition at 0.625 µg/mL ([9]; Mus musculus, T-cell, 120 h, 625 ng/ml, read-out: Inhibition rate (cytotoxic T-cell activity)) was 39.5%. For the same compound, the inhibition at 2.5 µg/mL ([9]; Mus musculus, T-cell, 120 h, 2,500 ng/ml, read-out: Inhibition rate (cytotoxic T-cell activity)) was 99.5%, the inhibition at 10 µg/mL ([9]; Mus musculus, T-cell, 120 h, 10,000 ng/ml, read-out: Inhibition rate (cytotoxic T-cell activity)) was greater than 99.5% and the “induction of CTL” value ([9]; in words, dose dependence) was “decreased the induction of CTL in a dose-dependent manner”. The Solubility ([10]; chloroform, ethyl acetate, ether) was “Insoluble in chloroform, ethyl acetate and ether” and the Solubility ([10]; water, methanol, ethanol, DMSO) was “Soluble in water, methanol, ethanol and DMSO”.
Work on CC[C@@H]1/C=C(\C)C[C@H](C)C[C@H](OC)[C@H]2O[C@@](O)(C(=O)C(=O)N3CCCC[C@H]3C(=O)O[C@H](/C(C)=C/[C@@H]3CC[C@@H](O)[C@H](OC)C3)[C@H](C)[C@@H](O)CC1=O)[C@H](C)C[C@@H]2OC [Ascomycin, reference compound] yielded an IC50 [3] of 0.008 µg/mL, a CC50 at 96 h [4] of 25 µg/mL (≈ 31.6 µM) and a CC50 at 96 h [5] of 58 µg/mL (≈ 73.2 µM). The CC50 at 96 h [6] was 50 µg/mL (≈ 63.1 µM) and the CC50 at 96 h [7] was 13 µg/mL (≈ 16.4 µM).

From patent US6090610A, “Macrolide compound 0406” (Higeta Shoyu Co., Ltd., priority 1996, dated 2000)
